Assay results reported in ChEMBL document CHEMBL1128991, “Trishomocubanes, a new class of selective and high affinity ligands for the sigma binding site” (Bioorg Med Chem Lett, 1996).

Assay: Binding affinity towards NMDA receptor ion channel (PCP site) was determined

| Compound | Ki |
| --- | --- |
| Brc1cccc(CNC2C3C4CC5C6C4C2C6C2(OCCO2)C53)c1 (stereo unspecified) | > 10 µM |
| OC12C3C4CC5C6C4C1C6C(C53)N2Cc1cccc(Br)c1 (stereo unspecified) | > 10 µM |
| OC12C3C4CC5C6C4C1C6C(C53)N2Cc1ccccc1 (stereo unspecified) | > 10 µM |
| Ic1ccc(CNC2C3C4CC5C6C4C2C6C2(OCCO2)C53)cc1 (stereo unspecified) | > 10 µM |
| Ic1cccc(CNC2C3C4CC5C6C4C2C6C2(OCCO2)C53)c1 (stereo unspecified) | > 10 µM |
| c1ccc(CNC2C3C4CC5C6C4C2C6C2(OCCO2)C53)cc1 (stereo unspecified) | > 10 µM |
